# Source: patent publication US20200283498A1, “T CELL RECEPTOR FUSIONS AND CONJUGATES AND METHODS OF USE THEREOF” (Altor Bioscience LLC, priority 2008, published 2020)
# Experiments:
# [1] = tested on: human NSCLC A549-A2 tumor cells; assay: Adoptive transfer of preincubated NK cells in A549-A2 experimental metastasis model; format: in vivo, athymic nude mice; conditions: CTX 200 mg/kg ip days 14, 21; NK cells preincubated with the protein iv days 16, 22 (CTX group: no NK cells)
# immune cells = format: in vivo, human
# Protocol: FIG. 33A is a line graph showing serum IFN-γ levels (determined by ELISA analysis) of subjects following treatment with 0.04 mg/kg ALT-801 (MTD level). FIG. 33B is a line graph showing IFN-γ ELISPOT analysis of PBMCs for subjects treated with 0.04 mg/kg ALT-801 (MTD level). Peripheral blood mononuclear cells (PBMCs) were prepared from samples collected pre-dosing (Cycles 1 & 2) and 2 hours after the drug infusion of dose 3 and 7. Following overnight incubation in medium alone or medium containing ALT-801, p53-positive A375 tumor cells or ALT-801+A375 tumor cells, activated immune effector cells were measured using ELISPOT for IFN-γ production
# Based on PK profile, the IL-2 receptors on the surface of immune cells (i.e. NK cells and T-cells) in the patient are anticipated to be fully occupied by the ALT-801 circulating in the patient's serum when a dose of 0.015 mg/kg or higher is administered. […] IFN-γ is produced by activated NK and T-cells and its induction by ALT-801 likely correlates with an increase in effector cell cytolytic activity that plays a role in the antitumor responses. […] Thus the lack of treatment-related TNF-α expression may contribute to the reduced toxicity observed with ALT-801 treatment compared with high-dose IL-2.
# The effects of ALT-801 on cell-mediated immune responses were also examined in treated patients. Blood samples were collected from subjects at pre-dosing on the first study drug infusion day and 2 hours after the drug infusion on the third drug infusion day during the first and second treatment cycles. Peripheral blood mononuclear cells (PBMCs) were prepared and incubated overnight in medium alone or medium containing ALT-801, p53-positive A375 tumor cells or ALT-801+A375 tumor cells. Levels of activated immune effector cells were measured using ELISPOT for interferon-gamma (IFN-γ) production. […] These cells were not found in the blood during the treatment cycle (i.e. Dose 3 and Dose 7 samples), consistent with lymphocyte migration to the tumor site. […] Together, these findings indicate that ALT-801 treatment at the MTD level provided favorable pharmacokinetics and immunostimulatory activity necessary for antitumor responses.
# [2] = tested on: metastatic malignancies that express HLA-A2/p53 peptide complexes; assay: Phase I/IIa clinical study of ALT-801: tumor assessment (RECIST); format: in vivo, human
# Protocol: FIG. 35 sets forth Table 2 depicting preliminary tumor assessment for evaluable subjects treated with 0.015, 0.04 or 0.08 mg/kg ALT-801. […] For SD (highlighted), change in target lesions compared to baseline is indicated at week 7 or 11 after the first dose.
# ALT-801 is currently being evaluated in a multi-course dose-escalation Phase I/IIa clinical study in patients with metastatic malignancies that express HLA-A2/p53 peptide complexes, the antigenic target of ALT-801. The primary endpoints in this dose-escalation study are to evaluate the safety, determine the maximum-tolerated dose (MTD), and characterize the pharmacokinetic profile of ALT-801 administered to patients with progressive metastatic malignancies. Secondary endpoints include evaluation of ALT-801 immunogenicity and assessment of the patient's immune response and anti-tumor response. Each subject enrolled receives up to a total of 8 doses of the study drug in the following schedule: once daily as an intravenous bolus for the first 4 days (cycle 1), followed by a 10-day rest period of no study drug treatment (rest period) and then once daily as an intravenous bolus for an additional 4 days (cycle 2). The trial design includes a dose escalation phase of 3-6 subjects/cohort with starting dose of 0.015 mg/kg (equivalent to approximately 50,000 IL-2 IU/kg) and an expansion phase with 10 additional patients treated at the MTD level. At least 23 patients have been treated with at least one dose of ALT-801 at the 0.015 mg/kg (4 patients), 0.04 mg/kg (13 patients) and 0.08 mg/kg (6 patients).
# The effects of ALT-801 on tumors was assessed based on RECIST criteria by comparing baseline (pre-dose) CT scans with those taken in follow-up visits at week 7 and 11.
# [3] = tested on: human PBMCs and purified NK cells; assay: In vitro activation of human PBMCs and purified NK cells by ALT-801; format: cell-based; conditions: concentrations observed in patients; overnight incubation
substance,measurement,setting,value
"ALT-801: recombinant humanized soluble single-chain TCR-cytokine fusion protein: human TCR β constant domain, murine TCR antigen-binding regions, human IL2; p53 (aa 264-272)/HLA-A2.1 specific",Median survival,[1],85.5 days
same,serum IFN-γ induction by dose level,immune cells; 0.04 mg/kg or 0.08 mg/kg,equivalent levels of serum IFN-γ induction that were higher than those observed at the 0.015 mg/kg dose level
same,serum IFN-γ concentrations,"immune cells; 4-8 hours after dosing, particularly following the fourth dose",increase in serum IFN-γ concentrations
same,immune cells responsive to ALT-801+A375 tumor cells (ELISPOT),immune cells; Pre-dose Cycle-2 sample,increase in immune cells responsive to ALT-801+A375 tumor cells
same,IFN-γ-positive cells in blood (ELISPOT),immune cells; during the 2-cycle course of treatment,little or no increase in IFN-γ-positive cells
same,patients with stable disease status,[2]; 11 weeks after treatment,approximately 50%
same,tumor shrinkage,[2]; cohort 3 subjects with stable disease,up to 23%
same,"subjects with stable disease, cohort 3",[2]; six evaluated subjects,four (three with melanoma and one with renal cell carcinoma) of six evaluated subjects of cohort 3 showed stable disease
same,"subjects with stable disease, cohort 2",[2]; six subjects,"three (prostate cancer, head and neck cancer and renal cell carcinoma) have achieved stable disease status"
same,change in target lesion LD compared to baseline,"[2]; subject 02004 Metastatic Head and Neck, second course 0.04 mg/kg, over 9 month",−3.3%
same,activation of human PBMCs and purified NK cells,[3],able to fully activate human PBMCs and purified NK cells
